Test results taken from patent US8765944B2, “Compounds for the treatment of hepatitis C” (priority 2010, dated 2014).

System: HCV pseudoparticles
Experiment: HCV pseudoparticle infection assay (luciferase reporter, Huh7 cells)
Format: cell-based, HCV (genotype 1b E1 and E2 envelope)
Conditions: Hepatitis C virus, genotype 1b, Huh-7, 48 h, HCV pseudoparticles (genotype 1b), luciferase activity 2 days after infection

In order of falling EC50:
1. CCN(CC)CC1(C(=O)NS(=O)(=O)c2ccc(Nc3nc(NC4(c5ccc(Cl)cc5)CC4)nc(OCC(F)(F)F)n3)cc2)CC1 [Example 3004]  1640 nM
2. O=C(NS(=O)(=O)c1ccc(Nc2nc(NC3(c4ccc(Cl)cc4)CC3)nc(OCC(F)(F)F)n2)cc1)C1(CN2CCOCC2)CC1 [Example 3003]  822 nM
3. O=C(NS(=O)(=O)c1ccc(Nc2nc(NC3(c4ccc(Cl)cc4)CC3)nc(OCC(F)(F)F)n2)cc1)C1(CN2CCCCC2)CC1 [Example 3002]  477 nM
4. O=C(CCCNC(=O)c1ccc(Nc2nc(NC3(c4ccc(Cl)cc4)CC3)nc(OCC(F)(F)F)n2)cc1)NCCC(=O)NS(=O)(=O)C1CCC1 [Example 2063]  37.9 nM
5. CC(C)(CNC(=O)c1ccc(Nc2nc(NC3(c4ccc(Cl)cc4)CC3)nc(OCC(F)(F)F)n2)cc1)C(=O)NS(=O)(=O)C1CC1 [Example 2084]  6 nM

Same assay, conditions: Hepatitis C virus, genotype 1b, Huh-7, 48 h, HCV pseudoparticles (genotype 1b), luciferase activity 2 days after infection, class

`C[C@@H](NC(=O)CCCNC(=O)c1ccc(Nc2nc(NC3(c4ccc(Cl)cc4)CC3)nc(OCC(F)(F)F)n2)cc1)C(=O)NS(C)(=O)=O` [Example 2051, (R)-4-(4-(1-(4-chlorophenyl)cyclopropylamino)-6-(2,2,2-trifluoroethoxy)-1,3,5-triazin-2-ylamino)-N-(4-(1-(methylsulfonamido)-1-oxopropan-2-ylamino)-4-oxobutyl)benzamide] and `C[C@H](NC(=O)CCCNC(=O)c1ccc(Nc2nc(NC3(c4ccc(Cl)cc4)CC3)nc(OCC(F)(F)F)n2)cc1)C(=O)NS(C)(=O)=O` [Example 2054] fall in the same range of EC50: 0.5 to 100 nM for the first, 0.5 to 100 nM for the second.

`CC(C)S(=O)(=O)NC(=O)[C@@H](C)NC(=O)CCCNC(=O)c1ccc(Nc2nc(NC3(c4ccc(Cl)cc4)CC3)nc(OCC(F)(F)F)n2)cc1` [Example 2052] and `CC(C)S(=O)(=O)NC(=O)[C@H](C)NC(=O)CCCNC(=O)c1ccc(Nc2nc(NC3(c4ccc(Cl)cc4)CC3)nc(OCC(F)(F)F)n2)cc1` [Example 2055] fall in the same range of EC50: 0.5 to 100 nM for the first, 0.5 to 100 nM for the second.

`C[C@@H](NC(=O)CCCNC(=O)c1ccc(Nc2nc(NC3(c4ccc(Cl)cc4)CC3)nc(OCC(F)(F)F)n2)cc1)C(=O)NS(=O)(=O)C1CC1` [Example 2053] and `C[C@H](NC(=O)CCCNC(=O)c1ccc(Nc2nc(NC3(c4ccc(Cl)cc4)CC3)nc(OCC(F)(F)F)n2)cc1)C(=O)NS(=O)(=O)C1CC1` [Example 2057] fall in the same range of EC50: 0.5 to 100 nM for the first, 0.5 to 100 nM for the second.

`C[C@H](NC(=O)CCCNC(=O)c1ccc(Nc2nc(NC3(c4ccc(Cl)cc4)CC3)nc(OCC(F)(F)F)n2)cc1)C(=O)NS(=O)(=O)N(C)C` [Example 2056] and `CN(C)S(=O)(=O)NC(=O)CCNC(=O)CCCNC(=O)c1ccc(Nc2nc(NC3(c4ccc(Cl)cc4)CC3)nc(OCC(F)(F)F)n2)cc1` [Example 2060] fall in the same range of EC50: 0.5 to 100 nM for the first, 0.5 to 100 nM for the second.

`C[C@H](NC(=O)CCCNC(=O)c1ccc(Nc2nc(NC3(c4ccc(Cl)cc4)CC3)nc(OCC(F)(F)F)n2)cc1)C(=O)NS(=O)(=O)C1CCC1` [Example 2058] and `O=C(CCCNC(=O)c1ccc(Nc2nc(NC3(c4ccc(Cl)cc4)CC3)nc(OCC(F)(F)F)n2)cc1)NCCC(=O)NS(=O)(=O)C1CCC1` [Example 2063] fall in the same range of EC50: 0.5 to 100 nM for the first, 0.5 to 100 nM for the second.

`CS(=O)(=O)NC(=O)CCNC(=O)CCCNC(=O)c1ccc(Nc2nc(NC3(c4ccc(Cl)cc4)CC3)nc(OCC(F)(F)F)n2)cc1` [Example 2059] and `CC(C)S(=O)(=O)NC(=O)CCNC(=O)CCCNC(=O)c1ccc(Nc2nc(NC3(c4ccc(Cl)cc4)CC3)nc(OCC(F)(F)F)n2)cc1` [Example 2061] fall in the same range of EC50: 0.5 to 100 nM for the first, 0.5 to 100 nM for the second.

`O=C(CCCNC(=O)c1ccc(Nc2nc(NC3(c4ccc(Cl)cc4)CC3)nc(OCC(F)(F)F)n2)cc1)NCCC(=O)NS(=O)(=O)C1CC1` [Example 2062] and `O=C(CCCNC(=O)c1ccc(Nc2nc(NC3(c4ccc(Cl)cc4)CC3)nc(OCC(F)(F)F)n2)cc1)NCCC(=O)N[C@]1(C(=O)NS(=O)(=O)C2CC2)C[C@H]1C1CC1` [Example 2064] fall in the same range of EC50: 0.5 to 100 nM for the first, 0.5 to 100 nM for the second.

`C=C[C@@H]1C[C@]1(NC(=O)C1(CNC(=O)c2ccc(Nc3nc(NC4(c5ccc(Cl)cc5)CC4)nc(OCC(F)(F)F)n3)cc2)CC1)C(=O)NS(=O)(=O)C1CC1` [Example 2065] and `C=C[C@@H]1C[C@]1(NC(=O)C1(CNC(=O)c2ccc(Nc3nc(NC4(c5ccc(Cl)cc5)CC4)nc(OCC(F)(F)F)n3)cc2)CC1)C(=O)NS(=O)(=O)C1CCC1` [Example 2069] fall in the same range of EC50: 0.5 to 100 nM for the first, 0.5 to 100 nM for the second.

`O=C(NCC1(C(=O)N[C@]2(C(=O)NS(=O)(=O)C3CC3)C[C@H]2C2CC2)CC1)c1ccc(Nc2nc(NC3(c4ccc(Cl)cc4)CC3)nc(OCC(F)(F)F)n2)cc1` [Example 2066] and `O=C(NCC1(C(=O)NC2(C(=O)NS(=O)(=O)C3CC3)CC2)CC1)c1ccc(Nc2nc(NC3(c4ccc(Cl)cc4)CC3)nc(OCC(F)(F)F)n2)cc1` [Example 2067] fall in the same range of EC50: 0.5 to 100 nM for the first, 0.5 to 100 nM for the second.

`C=C[C@@H]1C[C@]1(NC(=O)C1(CNC(=O)c2ccc(Nc3nc(NC4(c5ccc(Cl)cc5)CC4)nc(OCC(F)(F)F)n3)cc2)CC1)C(=O)NS(=O)(=O)C(C)(C)C` [Example 2068] and `CC(C)(C)S(=O)(=O)NC(=O)C1(CNC(=O)c2ccc(Nc3nc(NC4(c5ccc(Cl)cc5)CC4)nc(OCC(F)(F)F)n3)cc2)CC1` [Example 2075] fall in the same range of EC50: 0.5 to 100 nM for the first, 0.5 to 100 nM for the second.

`O=C(NCC1(C(=O)NS(=O)(=O)C2CC2)CC1)c1ccc(Nc2nc(NC3(c4ccc(Cl)cc4)CC3)nc(OCC(F)(F)F)n2)cc1` [Example 2070] and `CS(=O)(=O)NC(=O)C1(CNC(=O)c2ccc(Nc3nc(NC4(c5ccc(Cl)cc5)CC4)nc(OCC(F)(F)F)n3)cc2)CC1` [Example 2071] fall in the same range of EC50: 0.5 to 100 nM for the first, 0.5 to 100 nM for the second.

`C=CS(=O)(=O)NC(=O)C1(CNC(=O)c2ccc(Nc3nc(NC4(c5ccc(Cl)cc5)CC4)nc(OCC(F)(F)F)n3)cc2)CC1` [Example 2072] and `CCS(=O)(=O)NC(=O)C1(CNC(=O)c2ccc(Nc3nc(NC4(c5ccc(Cl)cc5)CC4)nc(OCC(F)(F)F)n3)cc2)CC1` [Example 2073] fall in the same range of EC50: 0.5 to 100 nM for the first, 0.5 to 100 nM for the second.

`CC(C)S(=O)(=O)NC(=O)C1(CNC(=O)c2ccc(Nc3nc(NC4(c5ccc(Cl)cc5)CC4)nc(OCC(F)(F)F)n3)cc2)CC1` [Example 2074] and `CN(C)S(=O)(=O)NC(=O)C1(CNC(=O)c2ccc(Nc3nc(NC4(c5ccc(Cl)cc5)CC4)nc(OCC(F)(F)F)n3)cc2)CC1` [Example 2078] fall in the same range of EC50: 0.5 to 100 nM for the first, 0.5 to 100 nM for the second.

`CCC1(S(=O)(=O)NC(=O)C2(CNC(=O)c3ccc(Nc4nc(NC5(c6ccc(Cl)cc6)CC5)nc(OCC(F)(F)F)n4)cc3)CC2)CC1` [Example 2076] and `CCCC1(S(=O)(=O)NC(=O)C2(CNC(=O)c3ccc(Nc4nc(NC5(c6ccc(Cl)cc6)CC5)nc(OCC(F)(F)F)n4)cc3)CC2)CC1` [Example 2077] fall in the same range of EC50: 0.5 to 100 nM for the first, 0.5 to 100 nM for the second.

`CC(C)N(C(=O)C1(CNC(=O)c2ccc(Nc3nc(NC4(c5ccc(Cl)cc5)CC4)nc(OCC(F)(F)F)n3)cc2)CC1)S(N)(=O)=O` [Example 2079] and `CC(C)S(=O)(=O)NC(=O)C(C)(C)CNC(=O)c1ccc(Nc2nc(NC3(c4ccc(Cl)cc4)CC3)nc(OCC(F)(F)F)n2)cc1` [Example 2088] fall in the same range of EC50: 0.5 to 100 nM for the first, 0.5 to 100 nM for the second.

`C=C[C@@H]1C[C@]1(NC(=O)C(C)(C)CNC(=O)c1ccc(Nc2nc(NC3(c4ccc(Cl)cc4)CC3)nc(OCC(F)(F)F)n2)cc1)C(=O)NS(=O)(=O)C1CC1` [Example 2080] and `C=C[C@@H]1C[C@]1(NC(=O)C(C)(C)CNC(=O)c1ccc(Nc2nc(NC3(c4ccc(Cl)cc4)CC3)nc(OCC(F)(F)F)n2)cc1)C(=O)NS(=O)(=O)C1CCC1` [Example 2083] fall in the same range of EC50: 0.5 to 100 nM for the first, 0.5 to 100 nM for the second.

`CC(C)(CNC(=O)c1ccc(Nc2nc(NC3(c4ccc(Cl)cc4)CC3)nc(OCC(F)(F)F)n2)cc1)C(=O)N[C@]1(C(=O)NS(=O)(=O)C2CC2)C[C@H]1C1CC1` [Example 2081] and `CC(C)(CNC(=O)c1ccc(Nc2nc(NC3(c4ccc(Cl)cc4)CC3)nc(OCC(F)(F)F)n2)cc1)C(=O)NC1(C(=O)NS(=O)(=O)C2CC2)CC1` [Example 2095] fall in the same range of EC50: 0.5 to 100 nM for the first, 0.5 to 100 nM for the second.

`C=C[C@@H]1C[C@]1(NC(=O)C(C)(C)CNC(=O)c1ccc(Nc2nc(NC3(c4ccc(Cl)cc4)CC3)nc(OCC(F)(F)F)n2)cc1)C(=O)NS(=O)(=O)C(C)(C)C` [Example 2082] and `CC(C)(CNC(=O)c1ccc(Nc2nc(NC3(c4ccc(Cl)cc4)CC3)nc(OCC(F)(F)F)n2)cc1)C(=O)NS(=O)(=O)C(C)(C)C` [Example 2090] fall in the same range of EC50: 0.5 to 100 nM for the first, 0.5 to 100 nM for the second.

`CC(C)(CNC(=O)c1ccc(Nc2nc(NC3(c4ccc(Cl)cc4)CC3)nc(OCC(F)(F)F)n2)cc1)C(=O)NS(=O)(=O)C1CC1` [Example 2084] and `CC(C)(CNC(=O)c1ccc(Nc2nc(NC3(c4ccc(Cl)cc4)CC3)nc(OCC(F)(F)F)n2)cc1)C(=O)NS(=O)(=O)C1CCC1` [Example 2089] fall in the same range of EC50: 0.5 to 100 nM for the first, 0.5 to 100 nM for the second.

`CC(C)(CNC(=O)c1ccc(Nc2nc(NC3(c4ccc(Cl)cc4)CC3)nc(OCC(F)(F)F)n2)cc1)C(=O)NS(C)(=O)=O` [Example 2085] and `CCS(=O)(=O)NC(=O)C(C)(C)CNC(=O)c1ccc(Nc2nc(NC3(c4ccc(Cl)cc4)CC3)nc(OCC(F)(F)F)n2)cc1` [Example 2087] fall in the same range of EC50: 0.5 to 100 nM for the first, 0.5 to 100 nM for the second.

`C=CS(=O)(=O)NC(=O)C(C)(C)CNC(=O)c1ccc(Nc2nc(NC3(c4ccc(Cl)cc4)CC3)nc(OCC(F)(F)F)n2)cc1` [Example 2086] and `CN(C)S(=O)(=O)NC(=O)C(C)(C)CNC(=O)c1ccc(Nc2nc(NC3(c4ccc(Cl)cc4)CC3)nc(OCC(F)(F)F)n2)cc1` [Example 2093] fall in the same range of EC50: 0.5 to 100 nM for the first, 0.5 to 100 nM for the second.

`CCC1(S(=O)(=O)NC(=O)C(C)(C)CNC(=O)c2ccc(Nc3nc(NC4(c5ccc(Cl)cc5)CC4)nc(OCC(F)(F)F)n3)cc2)CC1` [Example 2091] and `CCCC1(S(=O)(=O)NC(=O)C(C)(C)CNC(=O)c2ccc(Nc3nc(NC4(c5ccc(Cl)cc5)CC4)nc(OCC(F)(F)F)n3)cc2)CC1` [Example 2092] fall in the same range of EC50: 0.5 to 100 nM for the first, 0.5 to 100 nM for the second.

`COCCS(=O)(=O)NC(=O)C(C)(C)CNC(=O)c1ccc(Nc2nc(NC3(c4ccc(Cl)cc4)CC3)nc(OCC(F)(F)F)n2)cc1` [Example 2094] and `CC(C)(C)OC(=O)NC[C@H](NC(=O)c1ccc(Nc2nc(NC3(c4ccc(Cl)cc4)CC3)nc(OCC(F)(F)F)n2)cc1)C(=O)NS(=O)(=O)C1CC1` [Example 2096] fall in the same range of EC50: 0.5 to 100 nM for the first, 0.5 to 100 nM for the second.

First: O=C(NS(=O)(=O)c1ccc(Nc2nc(NC3(c4ccc(Cl)cc4)CC3)nc(OCC(F)(F)F)n2)cc1)C1(CN2CCCC2)CC1 [Example 3001]
Second: O=C(NS(=O)(=O)c1ccc(Nc2nc(NC3(c4ccc(Cl)cc4)CC3)nc(OCC(F)(F)F)n2)cc1)C1(CN2CCCCC2)CC1 [Example 3002]
The EC50 of the first is higher: 1000 to 5000 nM for the first, 100 to 1000 nM for the second.

First: O=C(NS(=O)(=O)c1ccc(Nc2nc(NC3(c4ccc(Cl)cc4)CC3)nc(OCC(F)(F)F)n2)cc1)C1(CN2CCOCC2)CC1 [Example 3003]
Second: CC(C)NCC1(C(=O)NS(=O)(=O)c2ccc(Nc3nc(NC4(c5ccc(Cl)cc5)CC4)nc(OCC(F)(F)F)n3)cc2)CC1 [Example 3005]
The EC50 of the first is lower: 100 to 1000 nM for the first, 1000 to 5000 nM for the second.

In the case of `CCN(CC)CC1(C(=O)NS(=O)(=O)c2ccc(Nc3nc(NC4(c5ccc(Cl)cc5)CC4)nc(OCC(F)(F)F)n3)cc2)CC1` [Example 3004], the EC50 is reported as 1000 to 5000 nM.
